From patent publication US8389544B2, “Isoquinolone compounds as subtype-selective agonists for melatonin receptors MT1 and MT2” (The Hong Kong University of Science and Technology, priority 2007, dated 2013)

Columns and labels:
[1] = biological target: T1, MT1 receptor (Homo sapiens, UniProt P48039); assay: CRE-Luc (luciferase reporter gene) assay, MT1; assay type: cell-based; design: expressed in transfected cells; settings: HEK 293-pCREluc cells with MT1; inhibition of forskolin response
Protocol: (§1) The luciferase reporter gene assay offers another way to measure melatonin receptor activation. Cells expressing cAMP-responsive element-driven luciferase reporter gene (293-pCREluc) and either the MT1 or MT2 receptor are treated with forskolin (a substance which stimulates cAMP production as well as the subsequent luciferase gene expression) alone or with a novel isoquinolone compound. As melatonin receptor activation inhibits cAMP production, any suppression in the expression of luciferase leads to a decrease in enzymatic activities and a reduction in the amount of luminescence signal generated.
(§2) The luciferase assay, a reporter gene assay, was performed to confirm the ability of the invention to activate the melatonin receptors. Prior to the assay, HEK (human embryonic kidney) 293 cells are stably transfected with cAMP-responsive element-driven luciferase reporter gene (293-pCREluc) and cDNAs encoding MT1 or MT2 receptors. The cells are then exposed to the novel isoquinolone compounds, after which the substrate luciferin is added and the resulting luminescence measured.
(§3) Prior to the assay human embryonic kidney (HEK) 293 cells (CRL-1573, ATCC) is maintained at 37° C. in minimum essential medium (MEM) supplemented with 10% fetal bovine serum (FBS), 100 units/ml penicillin and 100 μg/ml streptomycin in a humidified atmosphere containing 5% CO2. Human embryonic kidney 293 cells stably transfected with cAMP-responsive element-driven luciferase reporter gene (293-pCREluc) are established and maintained in growth medium supplemented with 300 μg/ml G418 sulphate.
(§4) For luciferase assays, HEK-293 cells stably expressing pCRE-luciferase are seeded at a density of 15,000 cells/well into 96 well plates. Transfection is carried out using Lipofectamine Plus® reagent at 0.2 μl of both Plus and lipofectamine reagents with 50 ng cDNAs encoding MT1 or MT2 receptors per well. After a 3 hour transfection period at 37° C., 50 μl of DMEM with 20% fetal calf serum (FCS) is added into the wells and the plate is incubated at 37° C. for 48 h prior to 24 hour serum starvation. […]
(§5) Cells are harvested by replacing medium in the well by 50 μl luciferase lysis buffer. The Berthold microplate luminometer is maintained at 25° C. throughout the assay. Injector M connected to an empty tube and P connected to the drug tube are set to inject 25 μl of luciferin into appropriate wells. A 1.6 second delay time followed by a 1 second measuring time period is assigned to injector M, whereas injector P is measured for 10 seconds after luciferase substrate is introduced into the well. Results are expressed as relative luminescent units (RLU). Where indicated, agonist-induced activity is expressed as a percentage of the RLU obtained with forskolin.

[2] = tested on: MT2/293; assay: MTT cytotoxicity assay, MT2/293 cells; assay type: cell-based; settings: percentage of untreated control cells
Protocol: (§6) This assay evaluates the cytotoxic effects of the novel isoquinolone compounds based on the cellular viability under chronic treatments. Viable cells but not dead cells can turn the substrate into a colored product, which yields higher absorbance. […] A low percentage indicates low cytoviability (or high cytotoxicity).
(§7) 5. Cytotoxicity Test Using MTT Assay
(§8) Cells were seeded into clear 96-well plate at an appropriate density in 100 μl growth medium and were allowed to grow overnight. The novel isoquinolone compounds were diluted to desired concentrations using fresh growth medium, and these dilutions were used to replace the growth media in each well. After incubating for 24-96 h, 10 μl of the MTT labeling reagent (Roche) was added to each well and the cells were incubated in a CO2 incubator for 4 h. 100 μl solubilization buffer was then added into each well and incubated overnight for complete solubilization of the purple formazan crystals. […] Each condition was performed in triplicate in every experiment and the results were expressed as % of blank control±SD.

[3] = biological target: T2, MT2 receptor (Homo sapiens, UniProt P49286); assay: CRE-Luc (luciferase reporter gene) assay, MT2; assay type: cell-based; design: expressed in transfected cells; settings: HEK 293-pCREluc cells with MT2; inhibition of forskolin response
T2 sequence (P49286 1-362): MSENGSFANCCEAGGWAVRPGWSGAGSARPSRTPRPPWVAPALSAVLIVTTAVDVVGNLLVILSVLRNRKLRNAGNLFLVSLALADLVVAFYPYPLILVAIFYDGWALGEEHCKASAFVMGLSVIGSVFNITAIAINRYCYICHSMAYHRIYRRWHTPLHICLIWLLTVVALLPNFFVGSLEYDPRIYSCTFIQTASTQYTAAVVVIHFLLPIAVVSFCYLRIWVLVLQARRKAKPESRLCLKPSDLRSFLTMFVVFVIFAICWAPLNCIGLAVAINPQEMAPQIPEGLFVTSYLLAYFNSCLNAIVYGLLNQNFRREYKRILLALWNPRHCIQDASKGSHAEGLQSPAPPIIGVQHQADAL
Protocol: as §1, §2, §3, §4, §5

[4] = tested on: MT1/293; assay: MTT cytotoxicity assay, MT1/293 cells; assay type: cell-based; settings: percentage of untreated control cells
Protocol: as §6, §7, §8

[5] = tested on: Parental 293; assay: MTT cytotoxicity assay, parental 293 cells; assay type: cell-based; settings: percentage of untreated control cells
Protocol: as §6, §7, §8

[6] = biological target: T1, MT1 receptor; assay: Competitive [3H]melatonin binding assay, MT1; design: expressed in transfected cells
Protocol: (§9) Competitive ligand binding assays were performed to examine the receptor binding characteristics of the novel isoquinolone compounds. The assay measures the ability of the novel isoquinolone compounds to bind and displace the radiolabelled endogenous ligand, [^3H]melatonin. Increasing concentrations of the novel compounds are added to displace the [^3H]melatonin-bound to MT1 or MT2 receptor-expressing cells.
(§10) 4. Competitive Binding Assay
(§11) The ability of compounds to bind to MT1 and/or MT2 receptors is determined using radioligand binding assays. […] 48 hours following transfection, cells are harvested in binding buffer (50 mM Tris-HCl, 2 mM MgCl2, 1 mM EDTA, pH 7.4). 100,000 cells are incubated with 1 nM [^3H] melatonin (specific activity: 83 Ci/mmol; GE Healthcare) and appropriate concentrations (0.1 nM to 1 μM) of unlabelled ligands in a total volume of 100 μl in 96-well plates (PerkinElmer Life And Analytical Sciences, Inc., Boston, Mass.) for 2 hours at room temperature. Reactions are terminated by rapid filtration through a 96-well cell harvester onto 96-well GF/C filter mats. Filters are washed with 500 μl of ice-cold binding buffer, dried and sealed in a polyethylene bag with 3.5 ml of scintillation fluid and counted for tritium in a Microbeta Jet scintillation counter. […] Data are analyzed by nonlinear least-squares regression using GraphPad Prism 3.02.

[7] = biological target: T2, MT2 receptor; assay: Competitive [3H]melatonin binding assay, MT2; design: expressed in transfected cells; settings: displacement of [3H]melatonin
Protocol: as §9, §10, §11

[8] = biological target: T2, MT2 receptor; assay: cAMP assay, MT2; assay type: cell-based; design: expressed in transfected cells; host or cells: COS-7 (monkey kidney fibroblast); settings: inhibition of forskolin-stimulated cAMP production; MT2-expressing cells
[9] = biological target: T1, MT1 receptor; assay: cAMP assay, MT1; assay type: cell-based; design: expressed in transfected cells; host or cells: COS-7 (monkey kidney fibroblast); settings: inhibition of forskolin-stimulated cAMP production; MT1-expressing cells

T1 sequence (P48039 whole entry): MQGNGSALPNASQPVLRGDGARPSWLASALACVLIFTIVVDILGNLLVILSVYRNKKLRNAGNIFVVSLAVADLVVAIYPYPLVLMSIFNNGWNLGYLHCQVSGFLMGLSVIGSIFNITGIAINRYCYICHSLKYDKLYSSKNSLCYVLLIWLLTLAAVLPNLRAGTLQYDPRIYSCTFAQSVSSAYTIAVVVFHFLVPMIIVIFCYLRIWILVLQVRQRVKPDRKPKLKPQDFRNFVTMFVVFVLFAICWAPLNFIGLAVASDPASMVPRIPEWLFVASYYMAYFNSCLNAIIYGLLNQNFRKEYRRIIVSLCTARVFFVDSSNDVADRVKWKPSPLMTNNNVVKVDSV

COc1ccc2[nH]c(I)c(CCNC(C)=O)c2c1 [Compound 2-IMT, 2-iodomelatonin, reference compound]
CRE-Luc Assay MT1 % Inh ± SEM of 1 μM Fsk [1]: 73.0 ± 2.2%
MTT Assay MT2/293 % Viability ± SEM [2]: 119.5 ± 8.3%
CRE-Luc Assay MT2 % Inh ± SEM of 1 μM Fsk [3]: 61.9 ± 5.0%
MTT Assay MT1/293 % Viability ± SEM [4]: 113.3 ± 7.0%
MTT Assay Parental 293 % Viability ± SEM [5]: 105.9 ± 4.3%
displacement of bound [3H]melatonin ([6]; b129, MT1 or MT2 receptor-expressing cells, both subtypes): 85-95%
Binding Assay MT1 % Inh ([6]; displacement of [3H]melatonin): 94.9%
Binding Assay MT2 % Inh [7]: 85.1%
cAMP Assay MT2 % Inh [8]: 51.9 ± 5.6%
cAMP Assay MT1 % Inh [9]: 48.5 ± 17.8%
